Read-outs that look alike come from different tables or passages of the source.
Legend:
[1] = cited from earlier work
[2] = biological target: T1, Human histamine H3 receptor (Homo sapiens, UniProt Q9Y5N1); assay: Radioligand binding assay with [3H]-N-α-methylhistamine; conditions: human recombinant H3R, 1.0 nM [3H]-N-α-methylhistamine, Cheng-Prusoff
T1 construct: purchased PerkinElmer
Protocol: Human histamine H3 receptor membrane (PerkinElmer) were incubated with 1.0 nM [^3H]—N-α-methylhistamine (PerkinElmer) in the presence or absence of increasing concentrations of ligands for H3 receptor competition binding. The binding incubations were in a final volume of 0.1 ml buffer (50 mMTris pH 7.5, 5 mM MgCl2) at 28° C. for 120 minutes. Thioperamide (10 μM) was used to define non-specific binding.
All binding reactions were terminated by transferring 70 μl binding reaction from the reaction plate into filtration plates (Zeba 96-well Spin Desalting Plates, Thermo Scientific), followed by centrifugation at 1000 g for 2 min to collect the protein with bound radioligand. 200 μl of microscint-40 were added to determine the bound radiolabel by a Wallac Microbeta Trilux 2450 (Perkin Elmer). For all radioligand competition binding assays, IC50 values and Hill slopes were determined by GraphPad Prism: log(inhibitor) vs. response with variable slope. Ki was calculated using the equation in Biochem. Pharmacol. 1973. 22 (23), 3099-3108, from Cheng and Prusoff: Ki=IC50/{1+([radioligand]/Kd)}.

[3] = tested on: H3 receptor; assay: Ex vivo receptor occupancy assay in rat frontal cortex; conditions: rats; for dose that resulted in H3 receptor occupancy of 80-90%: oral dosing, 1 h after compound administration
Protocol: Male Sprague-Dawley rats (from Shanghai SLAC Laboratory Animal CO. LTD) at the age of 5-6 weeks were used. The animals were housed in a temperature and humidity-controlled environment on a 12 h light/dark cycle with food and water available ad libitum. All the procedures were approved by Institutional Animal Care and Use Committee of Chempartner Co., LTD (IACUC Protocol NO: A998HL0076).
Compounds were dissolved in 50 mM citrate buffer (pH 3.5), or saline. The compound was then diluted stepwise to the final concentration with vehicle. Animals were dosed by p.o. or i.v. in 1 ml/kg bodyweight.
At each time point, rats were decapitated immediately. Intact brain was removed, immersed and washed in pre-cooled saline. After drying with filter paper, frontal cortex was dissected with a double-blade with an about 30° angle starting at ⅓ of anterior rat brain (weight of most brain tissues around 70±10 mg). Brain tissue was transferred into a pre-weighed tube with homogenizer beads. The tubes were weighed again and the tissue net weight was recorded. Tissue sampling was done on ice with intervals of 1 min. Then, 50 mM HEPES (Gibco® by Life Technologies) buffer were added (equivalent to 3.75 μl/mg tissue weight) followed by homogenization (frequency 30/sec for 20 sec, TissueLyser, Quiagen).
The crude homogenate samples of rat frontal cortex were used to measure H3 receptor binding as described above with [^3H]—N-α-methylhistamine as radioligand. The protein concentration of each sample was determined by Pierce BCA Protein Assay Kit (Thermo).
The cortical homogenate was added to a 96-well plate containing [^3H]—N-α-methylhistamine (0.1 nM), in a volume of 0.2 ml (final protein concentration 4 μg/μl), incubated at 28° C. for 15 min and the reaction was stopped by rapid filtration using a filtration plate (Millipore multiscreen GF/B plate). The filters were washed three times with ice-cold wash buffer (50 mM Tris, pH 7.5) and 250 μl of Microscint-40 were added followed by determination of the bound radiolabel with a Wallac Microbeta Trilux 2450 (Perkin Elmer). Nonspecific binding was determined in the presence of 10 μM thioperamide. Each data point was obtained from a total of at least four animals. The inhibition of specific [^3H]NAMH binding, calculated as relative to vehicle-treated samples, was determined to provide an indication of receptor occupancy by the compound. The dose-dependent % RO and time course were analyzed using GraphPad Prism. The dose response was fit using GraphPad Prism: log(inhibitor) vs. response with variable slope.

[4] = Rat brain and plasma PK; type: in vivo; conditions: 10 mg/kg oral, rats
[5] = tested on: tele-methylhistamine (tMeHA); assay: Ex vivo PD determination: brain tele-methylhistamine time course in rats; design: species or system rat; conditions: 10 mg/kg oral; for effect on tMeHA levels: brain
Protocol: Male Sprague-Dawley rats (Shanghai SLAC Laboratory Animal Co. LTD) of 6-7 weeks age were used. Animals were housed in a temperature and humidity-controlled environment on a 12 h light/dark. All animals had free access to food and water. All procedures were approved by Institutional Animal Care and Use Committee of ChemPartner Co., LTD (IACUC Protocol NO: A998HL0002).
For bioanalysis of brain tissue tele-methylhistamine samples were further processed.
One aliquot of the stock solution was diluted using ethanol/phosphate buffer pH 7.4 (85:15, v/v) to achieve a series working solutions. The brain homogenate was centrifuged at 12000 rpm for 5 min at 4° C. Then 10 μL supernatant of the brain homogenate sample was added to 60 μL internal standard (d3-1-methyl-histamine, 20 ng/mL). The mixture was vortexed for 2 min and centrifuged at 12000 rpm for 5 min at 4° C. Finally, 60 μL supernatant was added and 3 μL supernatant was injected into LC-MS/MS for analysis (Agilent 6410, triple quadrupole mass spectrometer, Mobile phase A: H2O— 0.1% NH3, Mobile phase B: methanol— 0.1% NH3, Column: Ultimate XB-C18 (2.1×50 mm, 5 μm, Flow rate: 0.45 mL/min, temperature: 40° C.).

[6] = 100-200 mg/day, two weeks treatment, excessive sleepiness associated with PD

T1 sequence (Q9Y5N1 whole entry): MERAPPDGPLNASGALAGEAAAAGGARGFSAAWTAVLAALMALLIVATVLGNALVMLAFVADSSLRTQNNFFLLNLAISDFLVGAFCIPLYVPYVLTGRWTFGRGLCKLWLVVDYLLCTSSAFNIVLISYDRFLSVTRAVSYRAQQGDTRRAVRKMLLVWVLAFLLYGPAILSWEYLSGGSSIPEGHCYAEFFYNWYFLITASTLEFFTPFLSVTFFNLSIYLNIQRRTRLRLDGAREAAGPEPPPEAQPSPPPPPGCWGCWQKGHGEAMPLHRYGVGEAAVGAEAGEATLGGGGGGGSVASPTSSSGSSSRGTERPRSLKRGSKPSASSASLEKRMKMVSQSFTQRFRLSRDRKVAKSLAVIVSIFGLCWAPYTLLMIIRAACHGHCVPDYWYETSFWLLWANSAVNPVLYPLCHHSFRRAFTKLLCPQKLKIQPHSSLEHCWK

Structure (SMILES) | Epworth Sleeping Scale scores [1, 6] | sleep latency in the Maintenance of Wakefulness Test [1, 6] | Epworth Sleeping Scale scores ([1]; 200-400 mg/day for four weeks) | Ki [2] [µM] | RO ([3]; 10 mg/kg oral, 7 h) [%] | initial RO ([3]; 10 mg/kg oral, time not given) [%] | dose that resulted in H3 receptor occupancy of 80-90% [3] [mg/kg] | rate of exposure-decline in brain, relative to Compound (I) [4] | total brain exposure [4] | brain exposure ([4]; 8 h time point) | time at which tMeHA increase is first observed [5] [h] | tMeHA level at 8 h ([5]; 8 h) | effect on tMeHA levels [5] | initial RO ([3]; 300 mg/kg oral, 0.5 h) [%] | RO ([3]; 300 mg/kg oral, 8 h after compound administration) [%]
NC(=O)C[S+]([O-])C(c1ccccc1)c1ccccc1 (stereo not drawn) [modafinil, 2-(benzhydrylsulfinyl)acetamide] | improved | but not sleep latency | no improvement |  |  |  |  |  |  |  |  |  |  |  | 
O=C(c1ccc(CN2CCOCC2)cc1)N1CCN(C2CC2)CC1 [bavisant, reference compound] |  |  |  | 0.102 | 37 | 90 | 10 | much slower | very high | high | 1 | stayed elevated | delayed increase |  | 
Clc1ccc(CCCOCCCN2CCCCC2)cc1 [pitolisant, reference compound] |  |  |  |  |  |  | 300 |  | very low |  |  |  | no increase | ~90 | 40

Source: patent US20210379062A1, “The use of a H3R inverse agonist for the treatment of excessive daytime sleepiness associated with parkinson's disease (PD)” (Novartis AG, priority 2018, published 2021)
